In ChEMBL document CHEMBL2074135, “Recognition of L-amino acid ester compounds by rat peptide transporters PEPT1 and PEPT2” (J Pharmacol Exp Ther, 1999) one finds Activity and Km data, which are given here for 7 molecules.

Common to all, as to format: functional, cell-based
The target of series [1] is T1, Solute carrier family 15 member 2 (Rattus norvegicus) (UniProt Q63424).
T1 sequence (whole entry): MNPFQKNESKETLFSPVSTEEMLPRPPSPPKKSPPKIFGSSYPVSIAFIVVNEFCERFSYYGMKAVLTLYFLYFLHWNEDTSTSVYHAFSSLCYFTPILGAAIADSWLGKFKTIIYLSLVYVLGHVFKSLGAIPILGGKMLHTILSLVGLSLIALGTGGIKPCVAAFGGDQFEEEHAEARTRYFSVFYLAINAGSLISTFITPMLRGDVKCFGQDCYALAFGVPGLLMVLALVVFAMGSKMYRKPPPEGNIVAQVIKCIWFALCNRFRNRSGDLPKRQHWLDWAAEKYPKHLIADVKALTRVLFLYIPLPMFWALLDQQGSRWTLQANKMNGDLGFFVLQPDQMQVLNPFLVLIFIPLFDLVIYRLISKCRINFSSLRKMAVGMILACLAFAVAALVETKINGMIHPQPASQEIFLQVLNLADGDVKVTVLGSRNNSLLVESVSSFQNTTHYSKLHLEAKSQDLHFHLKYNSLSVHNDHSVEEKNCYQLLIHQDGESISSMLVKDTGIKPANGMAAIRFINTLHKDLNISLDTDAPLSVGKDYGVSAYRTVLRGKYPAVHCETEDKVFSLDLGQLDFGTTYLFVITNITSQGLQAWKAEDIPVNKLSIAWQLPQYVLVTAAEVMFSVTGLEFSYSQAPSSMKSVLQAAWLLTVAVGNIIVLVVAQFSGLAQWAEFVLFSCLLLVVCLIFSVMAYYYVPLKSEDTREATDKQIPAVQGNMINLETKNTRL
Description: TP_TRANSPORTER: inhibition of Gly-Sar uptake (Gly-Sar: 20 uM, Val-tBu: 10000 uM) in PEPT2-expressing LLC-PK1 cells.

Series [2] addresses T2, Solute carrier family 15 member 1 (Rattus norvegicus) (UniProt P51574).
T2 sequence (whole entry): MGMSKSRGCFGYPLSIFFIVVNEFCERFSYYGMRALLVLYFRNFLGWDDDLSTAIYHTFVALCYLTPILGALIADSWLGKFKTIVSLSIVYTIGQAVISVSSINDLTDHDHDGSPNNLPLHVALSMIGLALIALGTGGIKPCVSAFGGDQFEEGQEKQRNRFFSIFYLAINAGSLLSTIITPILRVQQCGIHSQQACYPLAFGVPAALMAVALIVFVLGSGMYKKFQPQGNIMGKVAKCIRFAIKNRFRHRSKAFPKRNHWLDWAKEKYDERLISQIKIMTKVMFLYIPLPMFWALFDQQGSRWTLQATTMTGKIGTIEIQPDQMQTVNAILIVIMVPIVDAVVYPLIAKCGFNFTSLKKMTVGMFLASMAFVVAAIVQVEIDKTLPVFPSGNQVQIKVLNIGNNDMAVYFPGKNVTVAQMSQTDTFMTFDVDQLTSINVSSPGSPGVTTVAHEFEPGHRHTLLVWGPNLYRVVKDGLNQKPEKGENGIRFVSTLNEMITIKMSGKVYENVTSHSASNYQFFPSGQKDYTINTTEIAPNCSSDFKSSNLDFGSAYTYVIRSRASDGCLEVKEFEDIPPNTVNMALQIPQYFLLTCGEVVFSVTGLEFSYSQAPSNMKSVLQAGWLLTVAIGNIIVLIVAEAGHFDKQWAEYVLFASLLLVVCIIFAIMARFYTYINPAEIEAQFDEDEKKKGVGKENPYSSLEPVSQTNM
Description: TP_TRANSPORTER: inhibition of Gly-Sar uptake (Gly-Sar: 20 uM, Val-tBu: 10000 uM) in PEPT1-expressing LLC-PK1 cells.

In series [3] the target is T2, Solute carrier family 15 member 1 (Rattus norvegicus). Description: TP_TRANSPORTER: inhibition of Gly-Sar uptake (Gly-Sar: 20 uM, Ile-OMe: 10000 uM) in PEPT1-expressing LLC-PK1 cells.
For series [4], the target named is T1, Solute carrier family 15 member 2 (Rattus norvegicus). Description: TP_TRANSPORTER: inhibition of Gly-Sar uptake (Gly-Sar: 20 uM, Ile-OMe: 10000 uM) in PEPT2-expressing LLC-PK1 cells.
For series [5] the target is unchanged. Description: TP_TRANSPORTER: inhibition of Gly-Sar uptake (Gly-Sar: 20 uM, Leu-OMe: 10000 uM) in PEPT2-expressing LLC-PK1 cells.
The target in series [6] is T2, Solute carrier family 15 member 1 (Rattus norvegicus). Briefly: TP_TRANSPORTER: inhibition of Gly-Sar uptake (Gly-Sar: 20 uM, Leu-OMe: 10000 uM) in PEPT1-expressing LLC-PK1 cells.
The target is the same in series [7]. Description: TP_TRANSPORTER: inhibition of Gly-Sar uptake (Gly-Sar: 20 uM, Val-OBzl: 10000 uM) in PEPT1-expressing LLC-PK1 cells.
The target of series [8] is T1, Solute carrier family 15 member 2 (Rattus norvegicus). Briefly: TP_TRANSPORTER: inhibition of Gly-Sar uptake (Gly-Sar: 20 uM, Val-OBzl: 10000 uM) in PEPT2-expressing LLC-PK1 cells.
The target is the same in series [9]. Briefly: TP_TRANSPORTER: inhibition of Gly-Sar uptake (Gly-Sar: 20 uM, Tyr-OMe: 10000 uM) in PEPT2-expressing LLC-PK1 cells.
Substrate in series [10]: CN(CC(=O)O)C(=O)CN
Description: TP_TRANSPORTER: uptake in PEPT2-expressing LLC-PK1 cells.

Substrate in series [11]: CN(CC(=O)O)C(=O)CN
Description: TP_TRANSPORTER: uptake in PEPT1-expressing LLC-PK1 cells.

One may read the Km as the concentration of substrate that gives half-maximal velocity.

As for `CC(C)[C@H](N)C(=O)OC(C)(C)C`, the Activity entry in [1] and in [2] was “inhibitor [+]” throughout. In the case of `CC[C@H](C)[C@H](N)C(=O)OC`, the Activity entry in [3] and in [4] was “inhibitor [+]” throughout. On to `COC(=O)[C@@H](N)CC(C)C`, for which the Activity entry in [5] and in series [6] was “inhibitor [+]” each time. For the molecule `CC(C)[C@H](N)C(=O)OCc1ccccc1`, the Activity result in series [7] and in series [8] was “inhibitor [+]” throughout. For `COC(=O)[C@@H](N)Cc1ccc(O)cc1`, the Activity result in series [9] is “inhibitor [+]”.

B1: Solute carrier family 15 member 2 (Rattus norvegicus), Q63424 (protein)
chain: MNPFQKNESKETLFSPVSTEEMLPRPPSPPKKSPPKIFGSSYPVSIAFIVVNEFCERFSYYGMKAVLTLYFLYFLHWNEDTSTSVYHAFSSLCYFTPILGAAIADSWLGKFKTIIYLSLVYVLGHVFKSLGAIPILGGKMLHTILSLVGLSLIALGTGGIKPCVAAFGGDQFEEEHAEARTRYFSVFYLAINAGSLISTFITPMLRGDVKCFGQDCYALAFGVPGLLMVLALVVFAMGSKMYRKPPPEGNIVAQVIKCIWFALCNRFRNRSGDLPKRQHWLDWAAEKYPKHLIADVKALTRVLFLYIPLPMFWALLDQQGSRWTLQANKMNGDLGFFVLQPDQMQVLNPFLVLIFIPLFDLVIYRLISKCRINFSSLRKMAVGMILACLAFAVAALVETKINGMIHPQPASQEIFLQVLNLADGDVKVTVLGSRNNSLLVESVSSFQNTTHYSKLHLEAKSQDLHFHLKYNSLSVHNDHSVEEKNCYQLLIHQDGESISSMLVKDTGIKPANGMAAIRFINTLHKDLNISLDTDAPLSVGKDYGVSAYRTVLRGKYPAVHCETEDKVFSLDLGQLDFGTTYLFVITNITSQGLQAWKAEDIPVNKLSIAWQLPQYVLVTAAEVMFSVTGLEFSYSQAPSSMKSVLQAAWLLTVAVGNIIVLVVAQFSGLAQWAEFVLFSCLLLVVCLIFSVMAYYYVPLKSEDTREATDKQIPAVQGNMINLETKNTRL
For B1, the Michaelis-Menten constant (Km) in series [10] worked out at 90 µM.

B2: Solute carrier family 15 member 1 (Rattus norvegicus), P51574 (protein)
chain: MGMSKSRGCFGYPLSIFFIVVNEFCERFSYYGMRALLVLYFRNFLGWDDDLSTAIYHTFVALCYLTPILGALIADSWLGKFKTIVSLSIVYTIGQAVISVSSINDLTDHDHDGSPNNLPLHVALSMIGLALIALGTGGIKPCVSAFGGDQFEEGQEKQRNRFFSIFYLAINAGSLLSTIITPILRVQQCGIHSQQACYPLAFGVPAALMAVALIVFVLGSGMYKKFQPQGNIMGKVAKCIRFAIKNRFRHRSKAFPKRNHWLDWAKEKYDERLISQIKIMTKVMFLYIPLPMFWALFDQQGSRWTLQATTMTGKIGTIEIQPDQMQTVNAILIVIMVPIVDAVVYPLIAKCGFNFTSLKKMTVGMFLASMAFVVAAIVQVEIDKTLPVFPSGNQVQIKVLNIGNNDMAVYFPGKNVTVAQMSQTDTFMTFDVDQLTSINVSSPGSPGVTTVAHEFEPGHRHTLLVWGPNLYRVVKDGLNQKPEKGENGIRFVSTLNEMITIKMSGKVYENVTSHSASNYQFFPSGQKDYTINTTEIAPNCSSDFKSSNLDFGSAYTYVIRSRASDGCLEVKEFEDIPPNTVNMALQIPQYFLLTCGEVVFSVTGLEFSYSQAPSNMKSVLQAGWLLTVAIGNIIVLIVAEAGHFDKQWAEYVLFASLLLVVCIIFAIMARFYTYINPAEIEAQFDEDEKKKGVGKENPYSSLEPVSQTNM
For the molecule B2, the Km in [11] was determined as 1900 µM.
